Read-outs that look alike come from different tables or passages of the source.
Columns and labels:
[1] = test system: Acinetobacter baumannii-calcoaceticus species complex clinical isolates; assay: MIC of triple combinations (Compound 1, sulbactam, meropenem or cefepime), 141 clinical isolates; type: cell-based; conditions: Cmpd 1 at 4 μg/mL in combinations
Source text: For a more comprehensive assessment of the ability of test compounds to potentiate sulbactam in triple combinations with β-lactams additional MIC assays were utilized.

[2] = test system: multi-drug resistant Acinetobacter baumannii; assay: broth microdilution MIC of sulbactam, ampicillin, cefepime and combinations +/- Compound 1, panel of 51 Acinetobacter isolates

SMILES: CC1(C)[C@H](C(=O)O)N2C(=O)C[C@H]2S1(=O)=O [SUL, Sulbactam]
- MIC ([1]; Acinetobacter, strain 1035788): 32 µg/mL
- MIC ([1]; Acinetobacter, strain 1035794): 64 µg/mL
- MIC ([1]; Acinetobacter, strain 1035808): 32 µg/mL
- MIC ([1]; Acinetobacter, strain 1035825): 32 µg/mL
- MIC ([1]; Acinetobacter, strain 1035900): 32 µg/mL
- MIC ([1]; Acinetobacter, strain 1036023): 64 µg/mL
- MIC ([1]; Acinetobacter, strain 1036045): 32 µg/mL
- MIC ([1]; Acinetobacter, strain 1036068): 32 µg/mL
- MIC ([1]; Acinetobacter, strain 1036734): 32 µg/mL
- MIC ([1]; Acinetobacter, strain 1036768): 32 µg/mL
- MIC ([1]; Acinetobacter, strain 1036781): 32 µg/mL
- MIC ([1]; Acinetobacter, strain 1036859): 32 µg/mL
- MIC ([1]; Acinetobacter, strain 1036882): 32 µg/mL
- MIC ([1]; Acinetobacter, strain 1036921): 64 µg/mL
- MIC ([1]; Acinetobacter, strain 1037193): 16 µg/mL
- MIC ([1]; Acinetobacter, strain 1037211): 64 µg/mL
- MIC ([1]; Acinetobacter, strain 1037251): 32 µg/mL
- MIC ([1]; Acinetobacter, strain 1037256): 16 µg/mL
- MIC ([1]; Acinetobacter, strain 1037294): 64 µg/mL
- MIC ([1]; Acinetobacter, strain 1037462): 16 µg/mL
- MIC ([1]; Acinetobacter, strain 1037593): 32 µg/mL
- MIC ([1]; Acinetobacter, strain 1037618): 64 µg/mL
- MIC ([1]; Acinetobacter, strain 1037714): 8 µg/mL
- MIC ([1]; Acinetobacter, strain 1037731): 16 µg/mL
- MIC ([1]; Acinetobacter, strain 1037732): 16 µg/mL
- MIC ([1]; Acinetobacter, strain 1037738): 16 µg/mL
- MIC ([1]; Acinetobacter, strain 1037747): 32 µg/mL
- MIC ([1]; Acinetobacter, strain 1038418): 16 µg/mL
- MIC ([1]; Acinetobacter, strain 1038439): 16 µg/mL
- MIC ([1]; Acinetobacter, strain 1039502): 64 µg/mL
- MIC ([1]; Acinetobacter, strain 1039514): 16 µg/mL
- MIC ([1]; Acinetobacter, strain 1039515): 32 µg/mL
- MIC ([1]; Acinetobacter, strain 1039518): 16 µg/mL
- MIC ([1]; Acinetobacter, strain 1040900): 8 µg/mL
- MIC ([1]; Acinetobacter, strain 1040901): 64 µg/mL
- MIC ([1]; Acinetobacter, strain 1040916): 32 µg/mL
- MIC ([1]; Acinetobacter, strain 1042182): 16 µg/mL
- MIC ([1]; strain 1002960): 128 µg/mL
- MIC ([1]; strain 1010331): 128 µg/mL
- MIC ([1]; strain 1010950): 128 µg/mL
- MIC ([1]; strain 1019086): 128 µg/mL
- MIC ([1]; strain 1023031): 128 µg/mL
- MIC ([1]; strain 1037479): 128 µg/mL
- MIC ([1]; strain 1040917): 128 µg/mL
- MIC50 [2]: 16 µg/mL
- MIC90 [2]: 64 µg/mL
- MIC ([2]; read-out: Minimum inhibitory concentration (MIC), strain 0273 (ADC-25, OXA-23, OXA-66)): 32 µg/mL
- MIC ([2]; read-out: Minimum inhibitory concentration (MIC), strain 0274 (TEM-1D, ADC-25, OXA-66, OXA-72)): 64 µg/mL
- MIC ([2]; read-out: Minimum inhibitory concentration (MIC), strain 0275 (TEM-1D, ADC-25, OXA-23, OXA-66)): 64 µg/mL
- MIC ([2]; read-out: Minimum inhibitory concentration (MIC), strain 0276 (enzyme content ND)): 8 µg/mL
- MIC ([2]; read-out: Minimum inhibitory concentration (MIC), strain 0277 (TEM-1B, OXA-65, OXA-24)): 32 µg/mL
- MIC ([2]; read-out: Minimum inhibitory concentration (MIC), strain 0278 (TEM-1D, ADC-25, OXA-23, OXA-66)): 32 µg/mL
- MIC ([2]; read-out: Minimum inhibitory concentration (MIC), strain 0279 (TEM-1D, ADC-25, OXA-23, OXA-66)): 32 µg/mL
- MIC ([2]; read-out: Minimum inhibitory concentration (MIC), strain 0280 (TEM-1D, ADC-25, OXA-66)): 128 µg/mL
- MIC ([2]; read-out: Minimum inhibitory concentration (MIC), strain 0281 (TEM-1D, ADC-25, OXA-82)): 32 µg/mL
- MIC ([2]; read-out: Minimum inhibitory concentration (MIC), strain 0282 (TEM-1D, ADC-25, OXA-23, OXA-66)): 32 µg/mL
- MIC ([2]; read-out: Minimum inhibitory concentration (MIC), strain 0283 (TEM-1D, ADC-25, OXA-23, OXA-66)): 16 µg/mL
- MIC ([2]; read-out: Minimum inhibitory concentration (MIC), strain 0284 (TEM-1B, OXA-65, OXA-24)): 32 µg/mL
- MIC ([2]; read-out: Minimum inhibitory concentration (MIC), strain 0285 (TEM-1B, OXA-65, OXA-24)): 16 µg/mL
- MIC ([2]; read-out: Minimum inhibitory concentration (MIC), strain 0286 (ADC-25, OXA-66, OXA-24)): 16 µg/mL
- MIC ([2]; read-out: Minimum inhibitory concentration (MIC), strain 0287 (ADC-25, OXA-66, OXA-72)): 64 µg/mL
- MIC ([2]; read-out: Minimum inhibitory concentration (MIC), strain 0288 (ADC-25, OXA-23, OXA-66)): 32 µg/mL
- MIC ([2]; read-out: Minimum inhibitory concentration (MIC), strain 0289 (ADC-25, OXA-66, OXA-72)): 16 µg/mL
- MIC ([2]; read-out: Minimum inhibitory concentration (MIC), strain 0290 (TEM-1D, ADC-25, OXA-23, OXA-66)): 32 µg/mL
- MIC ([2]; read-out: Minimum inhibitory concentration (MIC), strain 0291 (TEM-1D, ADC-25, OXA-23, OXA-66)): 16 µg/mL
- MIC ([2]; read-out: Minimum inhibitory concentration (MIC), strain 0292 (OXA-66, OXA-72)): 32 µg/mL
- MIC ([2]; read-out: Minimum inhibitory concentration (MIC), strain 0293 (OXA-66, OXA-72)): 16 µg/mL
- MIC ([2]; read-out: Minimum inhibitory concentration (MIC), strain 0294 (TEM-1B, OXA-23, OXA-65)): 16 µg/mL
- MIC ([2]; read-out: Minimum inhibitory concentration (MIC), strain 0295 (TEM-1D, ADC-25, OXA-23, OXA-66)): 32 µg/mL
- MIC ([2]; read-out: Minimum inhibitory concentration (MIC), strain 0296 (ADC-25, OXA-23, OXA-223)): 64 µg/mL
- MIC ([2]; read-out: Minimum inhibitory concentration (MIC), strain 0297 (ADC-25, OXA-23, OXA-66)): 8 µg/mL
- MIC ([2]; read-out: Minimum inhibitory concentration (MIC), strain 0298 (TEM-1D, ADC-25, OXA-66, OXA-237)): 32 µg/mL
- MIC ([2]; read-out: Minimum inhibitory concentration (MIC), strain 0299 (PER-7, OXA-23, OXA-203)): 32 µg/mL
- MIC ([2]; read-out: Minimum inhibitory concentration (MIC), strain 0300 (ADC-25, OXA-66)): 2 µg/mL
- MIC ([2]; read-out: Minimum inhibitory concentration (MIC), strain 0301 (ADC-25, OXA-66, OXA-72)): 16 µg/mL
- MIC ([2]; read-out: Minimum inhibitory concentration (MIC), strain 0302 (OXA-23, OXA-82)): 32 µg/mL
- MIC ([2]; read-out: Minimum inhibitory concentration (MIC), strain 0303 (ADC-25, OXA-23, OXA-66)): 8 µg/mL
- MIC ([2]; read-out: Minimum inhibitory concentration (MIC), strain 0304 (ADC-25, OXA-66, OXA-72)): 8 µg/mL
- MIC ([2]; read-out: Minimum inhibitory concentration (MIC), strain 0305 (TEM-1B, OXA-65, OXA-24)): 8 µg/mL
- MIC ([2]; read-out: Minimum inhibitory concentration (MIC), strain 0306 (TEM-1B, OXA-65, OXA-24)): 64 µg/mL
- MIC ([2]; read-out: Minimum inhibitory concentration (MIC), strain 0307 (ADC-25, OXA-66, OXA-237)): 4 µg/mL
- MIC ([2]; read-out: Minimum inhibitory concentration (MIC), strain 0308 (TEM-1D, ADC-25, OXA-71)): 32 µg/mL
- MIC ([2]; read-out: Minimum inhibitory concentration (MIC), strain 0309 (OXA-23, OXA-82)): 8 µg/mL
- MIC ([2]; read-out: Minimum inhibitory concentration (MIC), strain 0310 (OXA-23, OXA-82)): 32 µg/mL
- MIC ([2]; read-out: Minimum inhibitory concentration (MIC), strain 0311 (ADC-25, OXA-23, OXA-82)): 16 µg/mL
- MIC ([2]; read-out: Minimum inhibitory concentration (MIC), strain 0312 (OXA-69)): 4 µg/mL
- MIC ([2]; read-out: Minimum inhibitory concentration (MIC), strain 0313 (TEM-1D, OXA-23, OXA-69)): 32 µg/mL
- MIC ([2]; read-out: Minimum inhibitory concentration (MIC), strain 157834 (enzyme content ND)): 2 µg/mL
- MIC ([2]; read-out: Minimum inhibitory concentration (MIC), strain 157842 (enzyme content ND)): 2 µg/mL
- MIC ([2]; read-out: Minimum inhibitory concentration (MIC), strain 157876 (enzyme content ND)): 4 µg/mL
- MIC ([2]; read-out: Minimum inhibitory concentration (MIC), strain 157901 (enzyme content ND)): 16 µg/mL
- MIC ([2]; read-out: Minimum inhibitory concentration (MIC), strain 161750 (enzyme content ND)): 8 µg/mL
- MIC ([2]; read-out: Minimum inhibitory concentration (MIC), strain 161752 (enzyme content ND)): 4 µg/mL
- MIC ([2]; read-out: Minimum inhibitory concentration (MIC), strain 161755 (enzyme content ND)): 4 µg/mL
- MIC ([2]; read-out: Minimum inhibitory concentration (MIC), strain 161756 (enzyme content ND)): 2 µg/mL
- MIC ([2]; read-out: Minimum inhibitory concentration (MIC), strain 161760 (enzyme content ND)): 16 µg/mL
- MIC ([2]; read-out: Minimum inhibitory concentration (MIC), strain 161762 (enzyme content ND)): 4 µg/mL

— patent publication US20220054513A1, “COMBINATION COMPOSITIONS COMPRISING A BETA-LACTAMASE INHIBITOR” (VenatoRx Pharmaceuticals, Inc., priority 2018, published 2022)
